According to patent US11254654B2, “Heterochromatin gene repression inhibitors” (The University of North Carolina at Chapel Hill, priority 2017, dated 2022):
Structures can show the parent of a compound that is named as a salt.

System: TetR-HP1
Assay: Orthogonal TetR-HP1 recruitment assay (BFP reporter)
Type: cell-based, mouse
Details: 5 μM, 48 hrs, with TetR-HP1 recruitment
Excerpt: The CiA:Oct4 recruitment system in mouse embryonic stem cells contains Gal4 and Zinc finger DNA binding arrays and a downstream nuclear eGFP gene in place of a single Oct4 allele as previously described (Hathaway et al., 2012). The CiA:Oct4 N118/N163 cell line containing viral integrations of N118 and N163 plasmids (N118-nLV EF-1α-Gal-FKBPx1-HA-PGK-Blast, N163-nLV EF-1α-HP1α (CS)-Frbx2(Frb+FrbWobb)-V5-PGK-Puro) was used for all experiments unless otherwise stated. The CiA:Oct4 N205 line containing the lentiviral construct N205 (N205-nLV EF-1α-ZFHD1-link-FKBP-HA <T2A> HP1αCS-Frbx2-V5-PGK-Blast) was used for shRNA experiments. CiA:Oct4 N118 was infected with the lentiviral construct N192 (N192-nLV Dual Promoter EF-1α-MCS-PGK-Puro HP1γ-(CS)-Frbx2(wobbmo)-V5) to yield the csHP1γ recruitment system CiA:Oct4 N118/N192. […]
TetR-HP1 cell lines were continuously grown with 1 μg/ml doxycycline to maintain an open chromatin state. […] Median BFP intensity was determined by FlowJo software analysis. […]

For `COc1cc2nc(N3CCCC3)nc(N[C@H]3CCCNC3)c2cc1OC` [compound 1, (S)-6,7-Dimethoxy-N-(Piperidin-3-yl)-2-(Pyrrolidin-1-yl)Quinazolin-4-Amine Trifluoroacetic Acid Salt], the “Inhibition of HP1-mediated heterochromatin formation (median BFP expression)” value was “significantly inhibit”.
